This is an account of results in patent US20180327367A1, “MACROCYCLIC BROAD SPECTRUM ANTIBIOTICS” (priority 2015, published 2018).

Structures are written as SMILES. ≈ marks a conversion by molar mass, not a printed value. Where two headings read alike, the source gives them in different places. Bounds are passed on as bounds.

As a reminder, the IC50 is the concentration that gives 50% inhibition.

Assay [1] has as its system Methicillin Resistant Staphylococcus aureus strain USA 300, NRS384. Put plainly: Minimum inhibitory concentration, broth micro-dilution (CLSI), S. aureus. The assay is classed as cell-based. The settings on record: Staphylococcus aureus, MRSA / NRS 384 / USA300, 22 h, 35° C., 22 hours. In outline:
(§1)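 CLSI broth microdilution in cation-adjusted Mueller Hinton Broth with 0.002% Tween-80; inoculum final OD600 0.0005, 22 hours at 35° C. Ten 2-fold dilutions starting at 4 μg/mL (protocol 2) or 0.5 μg/mL (protocol 3).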
Background: In broth dilution the organism is exposed to a series of concentrations in liquid medium.

In assay [2] the test system is Escherichia coli MC4100 harboring the IMP4213 (E. coli IMP). Put plainly: microbe, parasite or virus in culture. The format is cell-based. The note with it: Escherichia coli, 22 h, read-out: MIC (μg/mL) E. coli IMP, E. coli MC4100 IMP4213, increased outer-membrane permeability; 35° C., 22 hours. The procedure, abridged:
as §1

For assay [3], the system named is Escherichia coli ATCC 25922. The assay can be described thus: Minimum inhibitory concentration, broth micro-dilution (CLSI), E. coli. The assay is classed as cell-based. The settings on record: Escherichia coli, ATCC25922, 22 h, 35° C., 22 hours.
For assay [4], the target named is T1, SpsB (Staphylococcus aureus signal peptidase) (Staphylococcus aureus, UniProt P0A070).
T1 construct: This assay uses a suspension of Staphylococcus aureus cells as a source of SpsB instead of recombinant SpsB protein; endogenous in cells; host or cells: S. aureus, USA300 background, overexpressing SpsB (whole-cell suspension from frozen pellets)
Put plainly: cell-based. The format is biochemical. The settings on record: SpsB IC50, whole-cell S. aureus (USA300 background, overexpressing SpsB) as SpsB source; fluorogenic peptide substrate, kinetic read 30 min. In outline:
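Whole S. aureus cells (USA300, overexpressing SpsB) in PBS with MgCl2, CaCl2 and 0.1% Tween-80 served as enzyme source, mixed with 20 μM stock of (Dabcyl)βAla-KPAKAAE(Edans) substrate before use. Fluorescence (ex 340/em 490 nm) read kinetically over 30 min. IC50 from reaction rate versus 11-point inhibitor concentration.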

The mark [5] stands for this setting: read-out: MIC (μg/mL) S. aureus, MRSA USA 300 NRS384.
Where [6] appears, read: read-out: MIC (μg/mL) E. coli, E. coli ATCC 25922.
[7] abbreviates: MRSA USA 300 NRS384, read-out: MIC (μg/mL) S. aureus.
Where [8] appears, read: E. coli ATCC 25922, read-out: MIC (μg/mL) E. coli.

T1 sequence (P0A070 whole entry): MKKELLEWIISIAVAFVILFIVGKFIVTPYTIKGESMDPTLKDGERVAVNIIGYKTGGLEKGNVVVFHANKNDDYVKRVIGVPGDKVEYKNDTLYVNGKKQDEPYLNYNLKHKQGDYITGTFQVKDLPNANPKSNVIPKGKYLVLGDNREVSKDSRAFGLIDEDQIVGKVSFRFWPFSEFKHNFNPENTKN

Take `CCCCc1ccc(-c2ccc(C(=O)N[C@@H](CCN)C(=O)N(C)[C@@H]3C(=O)N[C@@H](C)C(=O)N[C@H](C(=O)NCC#N)Cc4ccc(OCCN)c(c4)-c4cc3ccc4OCCN)cc2)cc1` [Compound 338]: the values for the MIC in assay [1] (setting [5]), in assay [2] and in assay [3] (setting [6]) were 0.063 µg/mL (≈ 0.0721 µM), 0.023 µg/mL (≈ 0.0263 µM) and 0.19 µg/mL (≈ 0.217 µM), respectively. The IC50 in assay [4] is < 0.5 nM.
On the same counts, the results for `C[C@@H]1NC(=O)[C@@H](N(C)C(=O)[C@H](CCCCN)NC(=O)c2ccccc2-c2ccc(Cl)cc2)c2ccc(OCCN)c(c2)-c2cc(ccc2OCCN)C[C@@H](C(=O)NCC#N)NC1=O` [Compound 114] are 2 µg/mL (≈ 2.27 µM), 2 µg/mL (≈ 2.27 µM), > 64 µg/mL and 6.1 nM.
Turning to `CCCCCCCOc1cc(C)c(C(=O)N[C@@H](CCN)C(=O)N(C)[C@@H]2C(=O)N[C@@H](C)C(=O)N[C@H](C(=O)NCC#N)Cc3ccc(OCCN)c(c3)-c3cc2ccc3OCCN)c(C)c1` [Compound 292], the MIC in assay [1] (setting [7]) is 0.047 µg/mL (≈ 0.0532 µM); in assay [2], 0.0078 µg/mL (≈ 0.00882 µM); in assay [3] (setting [8]), 0.38 µg/mL (≈ 0.43 µM). This compound also yielded an IC50 in assay [4] of 1.2 nM.
As for `CCCCOc1ccc(-c2ncc(C(=O)N[C@@H](CCN)C(=O)N(C)[C@@H]3C(=O)N[C@@H](C)C(=O)N[C@H](C(=O)NCC#N)Cc4ccc(OCCN)c(c4)-c4cc3ccc4OCCN)c(C)n2)cc1` [Compound 164], the MIC in assay [1] (setting [7]) was 0.047 µg/mL (≈ 0.0519 µM); in assay [2] it was 0.0039 µg/mL (≈ 0.0043 µM); in assay [3] (setting [8]) it was 0.13 µg/mL (≈ 0.143 µM). For the same compound, it took 0.62 nM to reach half-maximal inhibition in assay [4] (IC50).
In the case of `CCCCCCCCCCCCCC(=O)N[C@@H](CCN)C(=O)N(C)[C@@H]1C(=O)N[C@@H](C)C(=O)N[C@H](C(=O)NCC#N)Cc2ccc(OCCN)c(c2)-c2cc1ccc2OCCN` [Compound 337], the MIC was found to be 0.031 µg/mL (≈ 0.0366 µM) in assay [1] (setting [7]), 0.016 µg/mL (≈ 0.0189 µM) in assay [2] and 0.25 µg/mL (≈ 0.295 µM) in assay [3] (setting [8]). In assay [4], the half-maximal inhibitory concentration (IC50) is < 0.5 nM.
In the case of `CCCCc1ccc(C(=O)NCC(=O)NCC(=O)N[C@@H](CCN)C(=O)N(C)[C@@H]2C(=O)N[C@@H](C)C(=O)N[C@H](C(=O)NCC#N)Cc3ccc(OCCN)c(c3)-c3cc2ccc3OCCN)c(C)c1` [Compound 371], the values for the MIC in assay [1] (setting [5]), in assay [2] and in assay [3] (setting [6]) were 0.25 µg/mL (≈ 0.27 µM), 0.5 µg/mL (≈ 0.54 µM) and 32 µg/mL (≈ 34.6 µM), respectively. Moreover, half-maximal inhibition in assay [4] (IC50) required 1.3 nM.
Turning to `C[C@@H]1NC(=O)[C@@H](N(C)C(=O)[C@H](CCN)NC(=O)c2ccc(C#CC3CCCCC3)cc2C(F)F)c2ccc(OCCN)c(c2)-c2cc(ccc2OCCN)C[C@@H](C(=O)NCC#N)NC1=O` [Compound 311], the MIC in assay [1] (setting [5]) was 0.047 µg/mL (≈ 0.0523 µM); in assay [2], 0.012 µg/mL (≈ 0.0134 µM); in assay [3] (setting [6]) it was 0.25 µg/mL (≈ 0.278 µM). In assay [4], this compound showed a half-maximal inhibitory concentration (IC50) of 0.64 nM.
Take `C[C@@H]1NC(=O)[C@@H](N(C)C(=O)[C@H](CCCCN)NC(=O)c2ccc(-c3ccc(Cl)cc3)cc2)c2ccc(OCCN)c(c2)-c2cc(ccc2O)C[C@@H](C(=O)N[C@@H](C)C#N)NC1=O` [Compound 319]: the MIC in assay [1] (setting [5]) is 2 µg/mL (≈ 2.35 µM); in assay [2], 0.75 µg/mL (≈ 0.881 µM); in assay [3] (setting [6]), > 64 µg/mL. The compound further came in with an IC50 in assay [4] of 6.3 nM.
On to `CCCCCCCCc1nc(C)c(C(=O)N[C@@H](CCN)C(=O)N(C)[C@@H]2C(=O)N[C@@H](C)C(=O)N[C@H](C(=O)NCC#N)Cc3ccc(OCCN)c(c3)-c3cc2ccc3OCCN)s1` [Compound 213], for which the MIC was found to be 0.047 µg/mL (≈ 0.0537 µM) in assay [1] (setting [7]), 0.023 µg/mL (≈ 0.0263 µM) in assay [2] and 2 µg/mL (≈ 2.29 µM) in assay [3] (setting [8]). In addition, in assay [4], the IC50 was 0.64 nM.
For `Cc1cc(-c2ccc(CC(C)C)cc2)ccc1C(=O)N[C@@H](CCN)C(=O)N(C)[C@@H]1C(=O)N[C@@H](C)C(=O)N[C@H](C(=O)NCC#N)Cc2ccc(OCCN)c(c2)-c2cc1ccc2OCCN` [Compound 146], in that order: 0.047 µg/mL (≈ 0.0529 µM), 0.0078 µg/mL (≈ 0.00878 µM), < 0.063 µg/mL and 0.9 nM.
On the same counts, the results for `CCCCCCCCCCCCCC(=O)N[C@@H](CCN)C(=O)N(C)[C@@H]1C(=O)N[C@@H](C)C(=O)N[C@H](C(=O)NCC#N)Cc2ccc(OCC)c(c2)-c2cc1ccc2OCCN` [Compound 324] are 0.25 µg/mL (≈ 0.3 µM), 0.031 µg/mL (≈ 0.0372 µM), 1 µg/mL (≈ 1.2 µM) and 0.82 nM.
